Patent US20240115531A1, “Composition for Treating Hair and Scalp” (DR. KURT WOLFF GMBH & CO. KG, priority 2020, published 2024)
Entries after “also recorded” stand apart in the source; their conditions may differ.

Key:
[1] = system: Human epidermal keratinocyte cells (HaCaT); experiment: MTT assay, cell viability of HaCaT keratinocytes; format: cell-based; details: versus control without DMG, FIG. 1
Method: (§1) 1. As part of an in vitro study, the effect of Na-dimethylglycinate was examined in a cell culture model with human horn-forming keratinocyte cells. For this purpose, HaCaT cells were cultured for 1, 3, 5, and 7 days in DMEM medium (including fetal calf serum and an anti biotic-anti mycotic mix) and, among other things, the viability and proliferation of the cells were determined using suitable measurement methods, and the expression of the growth factors relevant for cell growth was measured.
For this measurement, a so-called MTT assay was used to determine cellular metabolic activity as an indicator of cell viability and cytotoxicity. This colorimetric assay is based on the reduction of a yellow tetrazolium salt (3-(4,5-dimethylthiazol-2-yl)-2,5-diphenyltetrazolium bromide or MTT) to purple formazan crystals by metabolically active cells.
Human epidermal keratinocyte cells (HaCaT) were seeded in a 96-well plate at a cell density of 5,000 cells/well and cultured in medium (DMEM with 10% FBS, 1% penicillin-streptomycin, 0.5% fungizone). […]
Cell viability was determined using the MTT assay. The absorption was measured in quadruplicate and normalized to the control at 24 hours. […]

[2] = system: Human epidermal keratinocyte cells (HaCaT); experiment: CyQUANT assay, cell proliferation of HaCaT keratinocytes; format: cell-based; details: versus control without DMG, FIG. 2
Method: as §1
A so-called CyQUANT assay was carried out to measure the proliferation. In this fluorescence-based assay, the fluorescent dye used binds to DNA (deoxyribonucleic acid), with the content of cellular DNA being a direct measure of the number of cells in a sample.
Human epidermal keratinocyte cells (HaCaT) were seeded in a 96-well plate at a cell density of 5,000 cells/well and cultured in medium (DMEM with 10% FBS, 1% penicillin-streptomycin, 0.5% fungizone). The next day and after a further 24 h as well as 48 h and 72 h of cultivation at 37° C. and 5% by volume CO2, the cell culture medium without (control) or with the active ingredient concentrations already present was changed. […]
The cell proliferation was determined using the CyQUANT assay. The fluorescence was measured in triplicate and normalized to the control at 24 hours. […]

[3] = system: VEGF; experiment: Gene expression of VEGF by qRT-PCR in HaCaT cells; format: cell-based, human; details: after 24 hours of cultivation, versus control without DMG, FIG. 3
Method: VEGF (Vascular Endothelial Growth Factor) promotes the growth and formation of new blood and lymphatic vessels. Gene expression was measured using a standard method known as quantitative real-time PCR (qRT-PCR).
Human epidermal keratinocyte cells (HaCaT) were seeded in a 6-well plate at a cell density of 140,000 cells/well and cultured in medium (DMEM with 10% FBS, 1% penicillin-streptomycin, 0.5% fungizone) at 37° C. und 5% by volume CO2. The next day, the cell culture medium without (control) or with the active substance concentrations already present in each case was changed, and the cells were harvested after 24 hours. Gene expression was measured using qRT-PCR based on studies already published in B. V. Diaz, M.-C. Lenoir, A. Ladoux, C. Frelin, M. Demarchez, S. Michel, Journal of Biological Chemistry 2000, 275, 642-650.
The relative gene expression determined by qRT-PCR (triple determination, normalized to the respective gene expression of a constitutively expressed gene; GAPDH—glyceraldehyde-3-phosphate dehydrogenase) of VEGF is shown. Shown is the mean value with standard deviation.

## CN(C)CC(=O)[O-].[Na+] [DMG, sodium dimethylglycinate]
[1]; after 48 h of cultivation
  cell viability (MTT absorption normalized to the control at 24 hours): clear increase
[1]; after 72 h of cultivation
  cell viability (MTT absorption normalized to the control at 24 hours): clear increase
[2]; after 48 h of cultivation
  cell proliferation (CyQUANT fluorescence normalized to the control at 24 hours): clear increase
[2]; after 72 h of cultivation
  cell proliferation (CyQUANT fluorescence normalized to the control at 24 hours): clear increase
[3]
  relative gene expression of VEGF (normalized to GAPDH): significant increase; also recorded: significantly increased
